Data set [1] has as its system Staphylococcus aureus. The data set can be described thus: Antimicrobial activity against methicillin-resistant Staphylococcus aureus isolate RKI 11-02670 after 18 hrs by serial dilution method. The class given is functional, organism-based. As to conditions: isolate RKI 11-02670, 18 h.
A further data set concerns L929. The data set can be described thus: Antiproliferative activity against mouse L929 cells after 5 days by WST-1 assay. As to conditions: L929, 120 h. The format is ADME, cell-based.
A further data set has as its system KB 3-1. The data set can be described thus: Antiproliferative activity against human KB-3-1 cells after 5 days by WST-1 assay. The format is functional, cell-based. As to conditions: KB 3-1, 120 h.
Another data set deals with MCF7. Briefly: Antiproliferative activity against human MCF7 cells after 5 days by WST-1 assay. The conditions noted are these: MCF7, 120 h. The class given is functional, cell-based.
A short description of data set [2]: Antiproliferative activity against human FS4-LTM cells after 24 hrs by WST-1 assay. The class given is ADME, cell-based.
The test system of data set [3] is Staphylococcus aureus. Briefly: Antimicrobial activity against methicillin-resistant Staphylococcus aureus up to 100 uM after 18 hrs by serial dilution method. The class given is functional, organism-based.
The test system of data set [4] is Staphylococcus aureus. The data set can be described thus: Antimicrobial activity against methicillin-resistant Staphylococcus aureus DSM 11822 up to 100 uM after 18 hrs by serial dilution method. The format is functional, organism-based.
The subject of data set [5] is Staphylococcus aureus. The data set can be described thus: Antimicrobial activity against methicillin-resistant Staphylococcus aureus ICB 25701 up to 100 uM after 18 hrs by serial dilution method. The class given is functional, organism-based.
Data set [6] relates to Staphylococcus aureus. The data set can be described thus: Antimicrobial activity against methicillin-resistant Staphylococcus aureus isolate RKI 11-02670 up to 100 uM after 18 hrs by serial dilution method. The class given is functional, organism-based.
A further data set deals with Enterococcus faecium. Briefly: Antimicrobial activity against Enterococcus faecium DSM 20477 up to 100 uM after 18 hrs by serial dilution method. The format is functional, organism-based.
The test system of a further data set is Escherichia coli. Briefly: Antimicrobial activity against Escherichia coli DSM 1116 up to 100 uM after 18 hrs by serial dilution method. The class given is functional, organism-based.
The test system of a further data set is Pseudomonas aeruginosa. The data set can be described thus: Antimicrobial activity against Pseudomonas aeruginosa PA7 DSM 24068 up to 100 uM after 18 hrs by serial dilution method. The format is functional, organism-based.
A further data set has as its system Acinetobacter baumannii. Briefly: Antimicrobial activity against Acinetobacter baumannii DSM 30007 up to 100 uM after 18 hrs by serial dilution method. The class given is functional, organism-based.
Another data set relates to Klebsiella pneumoniae. Briefly: Antimicrobial activity against Klebsiella pneumoniae DSM 11678 up to 100 uM after 18 hrs by serial dilution method. The format is functional, organism-based.
Another data set has as its system Candida albicans. Briefly: Antimicrobial activity against Candida albicans up to 100 uM after 18 hrs by serial dilution method. The class given is functional, organism-based.
The test system of data set [7] is Staphylococcus aureus. Briefly: Growth promoting activity against methicillin-resistant Staphylococcus aureus at 50 uM after 18 hrs by serial dilution method. The conditions noted are these: in vivo. The class given is organism-based.

Converted amounts (≈) assume the structure as drawn. The source made the active and inactive calls. The calls are words filed in the database; no cut-off is given here.

In the data set with Staphylococcus aureus [1], `COc1cc(O)c2c(c1O)C/C(CO)=C\CC[C@@]1(C)O[C@@H]1C2=O` came in with a 50% effective concentration (EC50) of 50 µM. Also, the IC50 was determined as 40 µM in the data set on L929, 59 µM with KB 3-1, 43 µM in the data set on MCF7 and 42 µM in [2].
For `COc1cc(O)c2c(c1O)C/C(C(OC(C)=O)OC(C)=O)=C\CC[C@@]1(C)O[C@@H]1C2=O`, in that order: 54 µM, 2.7 µM, 5.6 µM, 5.6 µM and 2.5 µM.
With `COc1cc(O)c2c(c1O)[C@@H](O)/C(C)=C\CC[C@@]1(C)O[C@@H]1C2=O`, the result in the data set on Staphylococcus aureus [3], with Staphylococcus aureus [4], with Staphylococcus aureus [5], in the data set with Staphylococcus aureus [6], in the data set on Enterococcus faecium and in the data set on Escherichia coli was inactive. Further, the outcome in the data set with Pseudomonas aeruginosa, in the data set on Acinetobacter baumannii, in the data set with Klebsiella pneumoniae and in the data set on Candida albicans was inactive. Besides, the half-inhibitory concentration (IC50) in the data set with L929 was 4 µM; with KB 3-1 it was 4.1 µM; with MCF7 it was 6.2 µM; in data set [2] it was 29 µM.
Consider `C=C1Cc2c(O)c(OC)cc(O)c2C(=O)[C@H]2O[C@]2(C)CC[C@H]1Br`, for which the result in the data set with Staphylococcus aureus [3], in the data set with Staphylococcus aureus [4], with Staphylococcus aureus [5], in the data set on Staphylococcus aureus [6], with Enterococcus faecium and with Escherichia coli was inactive. The outcome in the data set on Pseudomonas aeruginosa, in the data set with Acinetobacter baumannii, in the data set with Klebsiella pneumoniae and in the data set on Candida albicans was inactive. The IC50 in the data set on L929 was determined as 2.5 µM; in the data set with KB 3-1 it was 4.5 µM; in the data set on MCF7 it was 11 µM; in data set [2] it was 14 µM.
In the case of `COc1cc(O)c2c(c1O)C/C(C)=C\CC[C@@]1(C)O[C@@H]1C2=O`, the outcome with Staphylococcus aureus [3], with Staphylococcus aureus [4], in the data set with Staphylococcus aureus [5], in the data set on Staphylococcus aureus [6], in the data set with Enterococcus faecium and in the data set with Escherichia coli was inactive. For the same compound, the outcome in the data set on Pseudomonas aeruginosa, in the data set on Acinetobacter baumannii, in the data set with Klebsiella pneumoniae and with Candida albicans was inactive. The Activity in the data set with Staphylococcus aureus [7] is on record as above 25%. Further, the half-maximal inhibitory concentration (IC50) with L929 was found to be 9.7 µM; in the data set with KB 3-1 it was 10 µM; with MCF7 it was 15 µM; in data set [2] it was 28 µM.
`COc1cc(O)c2c(c1O)C/C(CBr)=C\CC[C@@]1(C)O[C@@H]1C2=O`: the EC50 in the data set on Staphylococcus aureus [1] worked out at 22 µM. In the data set on Staphylococcus aureus [1], the lowest concentration to inhibit growth (MIC) was 13 µg/mL (≈ 33.9 µM). In addition, the IC50 turned out to be 10 µM in the data set on L929, 34 µM with KB 3-1, 32 µM in the data set on MCF7 and 29 µM in [2].
For the compound `COc1cc(O)c2c(c1O)C[C@]1(C)O[C@@H]1CC[C@@]1(C)O[C@@H]1C2=O`, the outcome with Staphylococcus aureus [3], with Staphylococcus aureus [4], in the data set with Staphylococcus aureus [5], in the data set on Staphylococcus aureus [6], in the data set with Enterococcus faecium and with Escherichia coli was inactive. Moreover, the outcome in the data set with Pseudomonas aeruginosa, in the data set with Acinetobacter baumannii, with Klebsiella pneumoniae and with Candida albicans was inactive. This compound also yielded an Activity in the data set with Staphylococcus aureus [7] above 25%. Also, the IC50 in the data set with L929 is 9.9 µM; in the data set with KB 3-1 it was 9 µM; in the data set on MCF7, 17 µM; in [2], 29 µM.
Regarding `COC1=CC(=O)C2=C(C[C@]3(C)O[C@@H]3CC[C@@]3(C)O[C@@H]3C2=O)C1=O`, the result in the data set on Staphylococcus aureus [3], with Staphylococcus aureus [4], in the data set on Staphylococcus aureus [5], in the data set on Staphylococcus aureus [6], in the data set on Enterococcus faecium and in the data set with Escherichia coli was inactive. Further, the outcome in the data set with Pseudomonas aeruginosa, in the data set on Acinetobacter baumannii, with Klebsiella pneumoniae and in the data set on Candida albicans was inactive. Moreover, the 50% inhibitory concentration (IC50) in the data set on L929 worked out at 18 µM; in the data set on KB 3-1, 20 µM; with MCF7, 24 µM; in data set [2], 31 µM.
Consider `COC1=CC(=O)C2=C(C/C(C)=C\CC[C@@]3(C)O[C@@H]3C2=O)C1=O`, for which, in the data set with Staphylococcus aureus [1], the 50% effective concentration (EC50) worked out at 64 µM. The IC50 worked out at 13 µM with L929, 14 µM in the data set with KB 3-1, 27 µM in the data set on MCF7 and 28 µM in data set [2].
As to `COc1cc(O)c2c(c1O)C[C@]1(C)O[C@@](C)(CC[C@H]1O)[C@H](O)C2=O`, the result in the data set on Staphylococcus aureus [3], in the data set with Staphylococcus aureus [4], in the data set on Staphylococcus aureus [5], with Staphylococcus aureus [6], in the data set with Enterococcus faecium and with Escherichia coli was inactive. Also, the outcome with Pseudomonas aeruginosa, in the data set on Acinetobacter baumannii, with Klebsiella pneumoniae and with Candida albicans was inactive. In addition, the concentration for half-maximal inhibition (IC50) in the data set with L929 is above 100 µM; in the data set with KB 3-1 it was 100 µM; with MCF7 it was 100 µM; in data set [2], above 100 µM.
